Measurements from patent publication US11879013B2, “Combination therapies with bispecific anti-EGFR/c-Met antibodies and third generation EGFR tyrosine kinase inhibitors” (Janssen Biotech, Inc., priority 2019, dated 2024).

Columns and labels:
H1975-HGF xenografts = experiment: Antitumor activity in H1975-HGF human lung carcinoma xenograft model; format: in vivo, female athymic nude mice; conditions: for TGI as compared to controls: Day 28, 10 mg/kg each agent, TKI po qd x 21, JNJ-372 ip biwk x 3
[1] = Body weight and clinical signs of nude mice bearing H1975 xenografts; format: in vivo, female athymic nude mice; conditions: for body weight change compared to the control group: H1975-xenograft-bearing nude mice, 10 mg/kg, JNJ-372 at Day 29, TKI-containing groups p<0.05; for day of euthanasia due to negative clinical signs / animals euthanized due to negative clinical signs: H1975 study; for animals euthanized due to negative clinical signs: n=10/group, unclear whether due to tumor burden or treatment
Description: (§1) Female athymic nude mice were used in the studies (n=10/group). Treatment began when SC tumors reached approximately 100 to 300 mm^3 in size. and dosing was initiated according to the treatment plan summarized in Table 2. […] The control group was dosed with vehicle orally daily for 21 days, and the isotype control antibody was dosed twice a week IP for 3 weeks. Mice were monitored for body weight and tumor volume up to Day 95, and were euthanized when individual tumor volume reached 2,000 mm^3 or at study conclusion.
(§2) Relative body weight of individual mice was calculated using the formula: (W/W0)×100, where ‘W’ represents body weight on a particular day, and ‘W0’ represents body weight at initiation of treatment. Body weight was graphically represented as mean % of initial body weight±SEM.
Statistical significance was evaluated for all pairwise comparisons on the last day of the study when at least eight mice remained in each group. Differences between groups were considered significant when p≤0.05. Statistical significance of tumor volume and body weight was calculated using the Linear Mixed-Effects analysis in R software version 3.4.2 (using Janssen's internally developed Shiny application version 3.3), with treatment and time as fixed effects and animal as random effect. Logarithmic transformation (base 10) was performed if individual longitudinal response trajectories were not linear. The information derived from this model was used to make pairwise treatment comparisons to the control group or between all the treatment groups.

[2] = Body weight and clinical signs of nude mice bearing H1975-HGF xenografts; format: in vivo, female athymic nude mice; conditions: for body weight change compared to the control group: H1975-HGF-tumor-bearing mice, 10 mg/kg, JNJ-372 at Day 28, TKI-containing groups p<0.05; for day found dead or euthanized / mice found dead or euthanized due to negative clinical signs: H1975-HGF study; for mice found dead or euthanized due to negative clinical signs: n=10/group, unclear whether due to tumor burden or treatment
Description: as §1, §2
Tumor volume and body weight data were graphically represented using Prism software (GraphPad, version 7). Statistical significance was evaluated for all pairwise comparisons on the last day of the study when at least eight mice remained in each group. Differences between groups were considered significant when p≤0.05. […] Logarithmic transformation (base 10) was performed if individual longitudinal response trajectories were not linear. The information derived from this model was used to make pairwise treatment comparisons to the control group or between all the treatment groups.
The experimental design was as described in Example 1 except that H1975 cells stably transfected to express hepatocyte growth factor (HGF) (H1975-HGF cells) were used in the studies and hereafter referred to as H1975-HGF-CNT.

EGFR-mutated NSCLC = experiment: FIH dose escalation study of lazertinib monotherapy; format: in vivo, human
Description: The safety profile and preliminary efficacy of both agents in EGFR-mutated NSCLC population is based upon clinical experience of approximately 100 subjects in each study, including those enrolled into expansion cohorts at their respective RP2D.
In the current monotherapy dosing regimen, lazertinib is administered as a daily oral therapy, while JNJ-61186372 is administered intravenously weekly during Cycle 1, and then every other week thereafter, beginning with Cycle 2 Day 1.

[3] = test system: H1975 human lung xenografts; experiment: Antitumor activity in H1975 human lung carcinoma xenograft model; conditions: for TGI as compared to controls: Day 28, 10 mg/kg each agent, TKI po qd x 21, JNJ-372 ip biwk x 3
Description: The animals were fed ad libitum water (reverse osmosis, 1 ppm Cl) and NIH 31 Modified and Irradiated Lab Diet® consisting of 18.0% crude protein, 5.0% crude fat, and 5.0% crude fiber. The mice were housed on irradiated Enrich-o'Cobs™ Laboratory Animal Bedding in static microisolators on a 12-hour light cycle at 20-22° C. (68-72° F.) and at 40-60% humidity. All studies complied with the recommendations of the Guide for Care and Use of Laboratory Animals with respect to restraint, husbandry, surgical procedures, feed and fluid regulation, and veterinary care.
NCI-H1975 cells were grown to mid-log phase in RPMI 1640 medium containing 10% fetal bovine serum, 2 mM glutamine, 100 units/mL sodium penicillin G, 25 μg/mL gentamicin, and 100 μg/mL streptomycin sulfate. The tumor cells were cultured in tissue culture flasks in a humidified incubator at 37° C., in an atmosphere of 5% CO2 and 95% air.
On the day of implant, the NCI-H1975 cells were harvested during log phase growth and resuspended in phosphate buffered saline (PBS) at a concentration of 5×10^7 cells/mL. Xenografts were initiated by subcutaneously implanting 5×10^6 NCI-H1975 cells per animal (0.1 mL suspension) into the right flank of each test animal and tumors were monitored as their volumes approached the target range of 150-200 mm^3. Fifteen days later, animals were sorted into bins by calculated tumor volumes based on vernier caliper measurements of tumor width and length to the nearest mm. The animals were then heuristically sorted among treatment groups, balancing the distribution of small to large sized tumor volumes among group assignments. […] Tumor size, in mm3, was calculated using the following formula: Tumor Volume=(w^2×l)/2 where w=width and l=length, in mm, of the tumor. […]
Female athymic nude mice were used in the studies (n=10/group). […] Mice were monitored for body weight and tumor volume up to Day 95, and were euthanized when individual tumor volume reached 2,000 mm^3 or at study conclusion.
Tumor volume data were graphically represented as the mean tumor volume±SEM. Tumor volume was calculated using the formula: tumor volume (mm^3)=(D×d2)/2; where ‘D’ represents the larger diameter, and ‘d’ the smaller diameter of the tumor as determined by caliper measurements.
The % TGI was defined as the difference between mean tumor burden of the treated and control group, calculated as % ΔTGI=([(TVc−TVc0)−(TVt−TVt0)]/(TVc−TVc0))×100 where ‘TVc’ is the mean tumor burden of a given control group, ‘TVc0’ is the mean initial tumor burden of a given control group, ‘TVt’ is the mean tumor burden of the treated group, and ‘TVt0’ is the mean initial tumor burden of the treated group.

mouse EGFR = mouse EGFR (Mus musculus, UniProt Q01279); experiment: Binding of JNJ-372 to mouse EGFR
mouse c-Met = mouse c-Met (Mus musculus, UniProt P16056); experiment: Binding of JNJ-372 to mouse c-Met
Sequence of mouse c-Met (P16056 25-1379): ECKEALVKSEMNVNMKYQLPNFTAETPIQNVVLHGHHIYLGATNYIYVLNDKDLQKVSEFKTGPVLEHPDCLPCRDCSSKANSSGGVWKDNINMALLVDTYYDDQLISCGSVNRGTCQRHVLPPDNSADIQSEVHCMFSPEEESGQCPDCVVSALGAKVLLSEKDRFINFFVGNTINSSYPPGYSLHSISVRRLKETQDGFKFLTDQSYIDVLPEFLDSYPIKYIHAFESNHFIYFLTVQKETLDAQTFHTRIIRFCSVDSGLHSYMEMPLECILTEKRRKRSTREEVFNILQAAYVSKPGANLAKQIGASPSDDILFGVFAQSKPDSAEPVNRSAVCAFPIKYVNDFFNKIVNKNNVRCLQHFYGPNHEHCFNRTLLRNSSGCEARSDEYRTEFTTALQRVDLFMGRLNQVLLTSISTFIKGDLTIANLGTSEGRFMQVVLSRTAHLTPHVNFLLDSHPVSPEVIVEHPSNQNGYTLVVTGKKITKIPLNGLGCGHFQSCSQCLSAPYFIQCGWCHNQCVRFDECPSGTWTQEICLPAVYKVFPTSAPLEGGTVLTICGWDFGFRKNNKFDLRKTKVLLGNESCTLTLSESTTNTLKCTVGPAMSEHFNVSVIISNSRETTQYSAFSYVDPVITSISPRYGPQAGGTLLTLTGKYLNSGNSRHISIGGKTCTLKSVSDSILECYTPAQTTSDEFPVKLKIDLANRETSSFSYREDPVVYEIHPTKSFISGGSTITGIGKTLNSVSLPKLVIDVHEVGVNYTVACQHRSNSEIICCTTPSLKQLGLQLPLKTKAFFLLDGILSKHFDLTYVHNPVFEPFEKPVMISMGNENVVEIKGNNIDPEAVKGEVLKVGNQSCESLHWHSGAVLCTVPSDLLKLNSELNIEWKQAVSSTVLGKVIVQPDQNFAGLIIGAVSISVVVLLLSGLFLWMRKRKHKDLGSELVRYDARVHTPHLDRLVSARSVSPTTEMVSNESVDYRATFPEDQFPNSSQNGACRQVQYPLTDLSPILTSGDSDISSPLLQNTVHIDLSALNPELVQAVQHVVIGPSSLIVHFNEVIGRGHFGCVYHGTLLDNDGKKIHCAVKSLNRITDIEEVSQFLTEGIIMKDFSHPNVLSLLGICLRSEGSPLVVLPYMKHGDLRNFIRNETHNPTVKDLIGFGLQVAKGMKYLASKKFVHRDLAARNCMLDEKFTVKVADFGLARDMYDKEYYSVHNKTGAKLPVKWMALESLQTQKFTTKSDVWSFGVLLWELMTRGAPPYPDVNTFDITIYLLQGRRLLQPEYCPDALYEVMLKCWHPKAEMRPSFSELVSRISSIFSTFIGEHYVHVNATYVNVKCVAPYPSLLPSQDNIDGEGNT

[4] = n=10/group, 10 mg/kg each agent

Molecule	TGI as compared to controls (H1975-HGF xenografts) [%]	CRs (complete tumor regression) (H1975-HGF xenografts; [4])	body weight change compared to the control group [1]	day of euthanasia due to negative clinical signs [1] [days]	animals euthanized due to negative clinical signs [1]	body weight change compared to the control group [2]	dose from which clinical activity in the targeted population was demonstrated (EGFR-mutated NSCLC; EGFR-mutated NSCLC) [mg]	DLTs (EGFR-mutated NSCLC; through doses up to 320 mg)	TGI as compared to controls [3] [%]	CRs (complete tumor regression, tumor not measurable on last day of analysis) [3, 4]	day found dead or euthanized [2] [days]	mice found dead or euthanized due to negative clinical signs [2]	binding to mouse EGFR (mouse EGFR)	binding to mouse c-Met (mouse c-Met)
C=CC(=O)Nc1cc(Nc2nccc(-n3cc(CN(C)C)c(-c4ccccc4)n3)n2)c(OC)cc1N1CCOCC1 [Lazertinib, N-(5-(4-(4-((dimethylamino)methyl)-3-phenyl-1H-pyrazol-1-yl)pyrimidin-2-ylamino)-4-methoxy-2-morpholinophenyl)acrylamide]	75	2 of 10	some transient body weight loss	21	One	some transient body weight loss	240	no DLTs were observed	112	1 of 10	–	–	–	–
C=CC(=O)Nc1cc(Nc2nccc(-c3cn(C)c4ccccc34)n2)c(OC)cc1N(C)CCN(C)C [Osimertinib, reference compound]	57	–	some transient body weight loss	–	–	some transient body weight loss	–	–	111	–	51	One	–	–
JNJ-372	70	–	did not elicit significant body weight loss	43	One	did not elicit significant body weight loss	–	–	86	–	53	One	does not bind	does not bind
